The values below come from US6780871B2, “Methods and compositions for treating addiction disorders” (Albany Medical College, priority 2001, dated 2004).

Molecules are shown by their SMILES.

Test [1] has as its target T1, NR1/2A receptors (Rattus norvegicus, UniProt P35439+Q00959).
T1 construct: expressed in transfected cells; host or cells: HEK293 (ATCC CRL1573), transient transfection
Put plainly: whole-cell patch-clamp of transfected HEK293 cells, NR1/2A, 100 μM glutamate plus 10 μM glycine. Format: cell-based. The method, then: Human embryonic kidney 293 (HEK293) fibroblasts (ATCC CRL1573) were cultured in minimal essential medium supplemented with 10% fetal bovine serum and 2 mM glutamine (Life Technologies, Rockville, Md.). Cells were plated on poly-D-lysine-coated 35 mm nunc dishes, transfected by the LipofectaminePLUS method (Life Technologies), and examined functionally between 18-48 h post transfection. The following receptor subunit cDNAs were used: nAChR-α3 (nicotinic acetylcholine receptor-α3; accession no. L31621), nAChR-α4 (accession no. L31620), nAChR-β2 (accession no. L31622), nAChR-β4 (accession no. U42976), 5-HT3R-A (5-HT3A receptor; accession no. M74425), NR1 (N-methyl-D-aspartate receptor 1; accession no. X63255), NR2A (accession no. X91561), and NR2B (accession no. M91562). The nAchR and NR clones were rat; the 5-HT3R-A clone was mouse. Co-transfection of enhanced green fluorescent protein (“EGFP”) (10% of total cDNA) provided a marker to identify transfected cells. Transfected cells were selected for EGFP expression and examined by voltage-clamp recording in the whole-cell configuration using an Axopatch 200B patch-clamp amplifier (Axon Instruments, Foster City, Calif.). Thin-walled borosilicate glass microelectrodes (TW150F, World Precision Instruments, Sarasota, Fla.) had resistances of 3-5 MΩ when filled with an internal solution containing (in mM): 135 CsCl, 10 CsF, 10 HEPES (N-[2-hydroxyethyl]piperazine-N′-[2-ethanesulfonic acid]), 5 EGTA (ethylene glycol-bis[β-aminoethyl ether]-N,N,N′,N′-tetraacetic acid), 1 MgCl2, 0.5 CaCl2, pH 7.2. Whole-cell capacitance and series resistance were recorded and adequately compensated using the available circuitry of the amplifier. Current responses were filtered at 1 kHz with an 8-pole Bessel filter (Cygnus Technologies, Delaware Water Gap, Pa.), digitized at 3 kHz, and stored on a Macintosh PowerPC-G3 computer using an ITC-16 interface (Instrutech, Great Neck, N.Y.) under control of the data acquisition and analysis program Synapse (Synergy Research, Gaithersburg, Md.). Cells were continuously superfused with extracellular solution containing (in mM): 150 NaCl, 3 KCl, 5 HEPES, 1 MgCl2, 1.8 CaCl2, 10 glucose, and 0.1 mg/ml phenol red, pH 7.3 (MgCl2 was omitted from all solutions used for the study of NMDA receptors). […] Control, agonist, and drug solutions were applied to individual cells by rapid perfusion. Solutions were driven by a syringe pump through a flowpipe having 4 inputs that converge at a single common output of approximately 100 μm diameter. Rapid switching between inputs was achieved using a set of upstream solenoid valves (Lee Co., Westbrook, Conn.) under computer control; the solution exchange rate was ˜5 ms as measured from liquid junction currents.
To study these, transfected HEK293 cells expressing NR1/2A or NR1/2B receptors were voltage-clamped to −70 mV and stimulated with 100 μM glutamate plus 10 μM glycine at 30 s intervals. […] In FIGS. 3A and 3B, open bars depict the timing of agonist application, filled bars depict the timing of co-application of 20 μM IBO or 20 μM 18MC, and inhibition was measured relative to control at the end of the drug application (indicated by arrows).
For orientation: Patch clamp records ionic current or voltage across a cell membrane.

Test [2] has as its system morphine self-administration. Put plainly: intravenous morphine self-administration. It is filed as in vivo, rat. The note with it: 18-methoxycoronaridine 1 mg/kg i.p., dextromethorphan 5 mg/kg s.c. The method, then:
Dextromethorphan hydrobromide (5 mg/kg; Sigma/RBI, St. Louis, Mo.) was dissolved in saline and injected subcutaneously 20 minutes before testing. Mecamylamine hydrochloride (1 mg/kg; Sigma/RBI, St. Louis, Mo.) was dissolved in physiological saline and injected intraperitoneally 30 minutes before testing. All rats received two injections. For rats that received a single drug, half of them also received the appropriate saline/vehicle injection corresponding to each of the other two drugs.
Naive female Long-Evans derived rats (250 g; Charles River, N.Y.) were maintained on a normal 12 h light cycle (lights on at 7:00 a.m., lights off at 7:00 p.m.). For all experiments the “Principles of Laboratory Animal Care” (NIH publication No. 85-23, revised 1985, which is hereby incorporated by reference) were followed.
The intravenous self-administration procedure described in Glick et al., “18-MC Reduces Methamphetamine and Nicotine Self-administration in Rats,” NeuroReport 11:2013-2015 (2000) (“Glick I”), which is hereby incorporated by reference, was employed. Briefly, responses on either of two levers (mounted 15 cm apart on the front wall of each operant test cage) were recorded on an IBM compatible computer with a Med Associates, Inc. interface. The intravenous self-administration system consisted of polyethylene-silicone cannulas constructed according to the design of Weeks, “Long-term Intravenous Infusion,” pp. 155-168 in Myers (ed.), Methods in Psychobiology, Vol. 2, New York: Academic Press (1972) (“Weeks”), which is hereby incorporated by reference; Instech harnesses and swivels; and Harvard Apparatus infusion pumps (#55-2222). Shaping of the bar-press response was initially accomplished by training rats to bar-press for water. Cannulas were then implanted in the external jugular vein according to procedures described in Weeks, which is hereby incorporated by reference. Self-administration testing began with a 16-h nocturnal session followed by daily 1-h sessions, 5 days (Monday-Friday) a week. A lever-press response produced a 10 μl infusion of drug solution (0.01 mg of morphine sulfate) in about 0.2 s or a 50 μl infusion of drug solution (0.025 mg of methamphetamine sulfate) in about 1 s. Since all rats generally weighed 250±20 g, each response delivered approximately 0.04 mg/kg of morphine or 0.1 mg/kg of methamphetamine. Experiments to assess the effects of experimental treatments were begun when baseline self-administration rates stabilized (≦10% variation from one day to the next across 5 days), usually after 2 weeks of testing.
Each data point represents the mean (±S.E.M.) percent of baseline of 6-8 rats. Significant differences between baseline and treatment are indicated by an asterisk (paired t-test, P<0.01-0.001).
Each data point represents the mean (±S.E.M.) percent of baseline of 5-8 rats. Significant differences between baseline and treatment are indicated by an asterisk (paired t-test), P<0.05-0.01).

T1 sequence (Q00959 20-1464 limits assumed, other chains not shown): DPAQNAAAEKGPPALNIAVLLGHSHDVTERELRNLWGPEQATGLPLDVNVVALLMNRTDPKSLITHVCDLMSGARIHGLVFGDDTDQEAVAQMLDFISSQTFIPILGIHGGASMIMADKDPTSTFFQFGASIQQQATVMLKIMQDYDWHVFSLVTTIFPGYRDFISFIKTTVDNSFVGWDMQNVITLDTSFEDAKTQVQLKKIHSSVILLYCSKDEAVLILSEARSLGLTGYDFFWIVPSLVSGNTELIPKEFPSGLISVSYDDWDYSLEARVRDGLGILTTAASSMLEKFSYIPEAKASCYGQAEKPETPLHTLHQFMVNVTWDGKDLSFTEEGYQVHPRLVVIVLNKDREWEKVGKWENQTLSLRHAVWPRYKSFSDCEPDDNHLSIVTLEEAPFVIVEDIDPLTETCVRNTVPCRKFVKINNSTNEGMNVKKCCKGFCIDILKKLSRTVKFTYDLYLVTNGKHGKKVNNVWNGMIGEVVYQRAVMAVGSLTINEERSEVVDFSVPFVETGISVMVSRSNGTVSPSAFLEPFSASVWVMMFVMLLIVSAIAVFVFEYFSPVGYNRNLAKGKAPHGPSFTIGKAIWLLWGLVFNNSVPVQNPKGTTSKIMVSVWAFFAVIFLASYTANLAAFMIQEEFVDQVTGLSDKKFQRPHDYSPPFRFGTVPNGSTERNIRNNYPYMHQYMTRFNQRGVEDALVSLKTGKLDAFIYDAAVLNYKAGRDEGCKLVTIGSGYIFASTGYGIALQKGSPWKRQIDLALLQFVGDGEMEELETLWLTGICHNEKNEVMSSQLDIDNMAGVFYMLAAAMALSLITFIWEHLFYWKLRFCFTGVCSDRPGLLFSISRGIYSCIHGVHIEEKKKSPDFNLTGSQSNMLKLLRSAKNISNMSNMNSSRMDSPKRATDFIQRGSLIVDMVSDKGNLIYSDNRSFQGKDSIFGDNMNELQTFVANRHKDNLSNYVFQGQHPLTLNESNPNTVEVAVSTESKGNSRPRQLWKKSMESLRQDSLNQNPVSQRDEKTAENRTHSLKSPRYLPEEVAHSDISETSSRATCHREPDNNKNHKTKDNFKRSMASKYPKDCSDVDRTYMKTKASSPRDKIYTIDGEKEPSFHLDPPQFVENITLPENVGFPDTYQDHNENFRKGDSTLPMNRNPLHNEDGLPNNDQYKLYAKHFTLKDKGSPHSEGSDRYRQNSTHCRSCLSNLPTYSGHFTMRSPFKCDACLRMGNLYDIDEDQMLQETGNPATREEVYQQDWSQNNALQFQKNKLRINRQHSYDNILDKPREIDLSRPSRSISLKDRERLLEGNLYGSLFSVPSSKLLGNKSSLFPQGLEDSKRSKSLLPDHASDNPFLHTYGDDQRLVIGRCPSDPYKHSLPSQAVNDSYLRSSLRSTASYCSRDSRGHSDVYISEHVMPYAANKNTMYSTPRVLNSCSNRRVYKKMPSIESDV

As to `COCC[C@H]1CC2CN3CCc4c([nH]c5ccccc45)[C@](C(=O)OC)(C2)[C@H]13` [18-methoxycoronaridine], in test [1] (20 μM drug alone), the “response to drug applied alone (agonist activity)” value is recorded as “did not produce any response”. For the same compound, the “inhibition of agonist-evoked response” value in test [1] (concentrations up to 20 μM, N=3, FIG. 3A) is listed as “failed to inhibit”. In addition, the “effect on morphine self-administration (percent of baseline)” value was “none of the drugs administered alone, significantly decreased” in test [2] (Example 5, FIG. 5: mecamylamine 1 mg/kg i.p., 6-8 rats) and “none of the drugs administered alone, significantly decreased” in test [2] (Example 6, FIG. 8: mecamylamine 1 mg/kg i.p., bupropion 5 mg/kg i.p., 5-8 rats).
